According to the NIST ThermoML archive (doi:10.1021/acs.jced.6b00430):
± gives the expanded uncertainty stated by the source.

Key:
[1] = 100 kPa, Liquid; for viscosity: Concentric cylinders viscometry; for mass density: Vibrating tube method
[2] = xn = mol fraction of the nth substance listed; details: 100 kPa, Liquid, x2 = 0; for mass density: Vibrating tube method

SMILES	viscosity ([1]; 298.15 K) [mPa·s]	viscosity ([1]; 308.15 K) [mPa·s]	viscosity ([1]; 318.15 K) [mPa·s]	viscosity ([1]; 328.15 K) [mPa·s]	mass density ([1]; 328.15 K) [kg/m3]	viscosity ([1]; 338.15 K) [mPa·s]	mass density ([1]; 338.15 K) [kg/m3]	mass density ([2]; 328.15 K) [kg/m3]	mass density ([2]; 338.15 K) [kg/m3]	further results
O [water]	0.89 ± 0.054	0.719 ± 0.044	0.596 ± 0.036	0.504 ± 0.031	985.69 ± 10	0.434 ± 0.026	980.55 ± 10			
CN(C)C=O [dimethylformamide] + O=[PH](O)O								915.06 ± 10	905.35 ± 10	viscosity ([2]; 298.15 K, Concentric cylinders viscometry): 0.783 ± 0.047 mPa·s; mass density ([2]; 298.15 K): 943.92 ± 10 kg/m3; viscosity ([2]; 308.15 K, Concentric cylinders viscometry): 0.699 ± 0.042 mPa·s; mass density ([2]; 308.15 K): 934.35 ± 10 kg/m3; viscosity ([2]; 318.15 K, Concentric cylinders viscometry): 0.623 ± 0.038 mPa·s; mass density ([2]; 318.15 K): 924.72 ± 10 kg/m3; viscosity ([2]; 328.15 K, Concentric cylinders viscometry): 0.555 ± 0.034 mPa·s; viscosity ([2]; 338.15 K, Concentric cylinders viscometry): 0.495 ± 0.03 mPa·s; mass density ([2]; 348.15 K): 895.57 ± 10 kg/m3
O [water] + O=[PH](O)O								985.69 ± 10	980.55 ± 10	viscosity ([2]; 298.15 K, Capillary tube (Ostwald / Ubbelohde) method): 0.89 ± 0.054 mPa·s; viscosity ([2]; 308.15 K, Capillary tube (Ostwald / Ubbelohde) method): 0.719 ± 0.043 mPa·s; viscosity ([2]; 318.15 K, Capillary tube (Ostwald / Ubbelohde) method): 0.596 ± 0.036 mPa·s; viscosity ([2]; 328.15 K, Capillary tube (Ostwald / Ubbelohde) method): 0.504 ± 0.03 mPa·s; viscosity ([2]; 338.15 K, Capillary tube (Ostwald / Ubbelohde) method): 0.434 ± 0.026 mPa·s
CN(C)C=O [dimethylformamide]	0.783 ± 0.047	0.699 ± 0.042	0.623 ± 0.038	0.555 ± 0.034	915.06 ± 10	0.495 ± 0.03	905.35 ± 10			mass density ([1]; 298.15 K): 943.92 ± 10 kg/m3; mass density ([1]; 308.15 K): 934.35 ± 10 kg/m3; mass density ([1]; 318.15 K): 924.72 ± 10 kg/m3; mass density ([1]; 348.15 K): 895.57 ± 10 kg/m3
